This note sets out measurements from patent publication US20250304535A1, “KAT6 Inhibitors” (BeiGene Switzerland GmbH, priority 2024, published 2025).

The test system of assay [1] is histone H3K23 acetylation in U-2 OS cells. Nature of the assay: Histone H3 lysine 23 acetylation assay in U-2 OS cells (high content analysis). In kind it is cell-based. The note with it: Homo sapiens, U2OS, 24 hrs exposure, H3K23ac level. How it is done:
Assay B: Histone H3 lysine 23 Acetylation Assay
Compounds were tested for their capacity to suppress the histone H3K23 acetylation in the following high content analysis assay.
The cell line U-2 OS (ATCC HTB-96) was seeded at a density of 2000 cells per well in black 384 well cell culture/imaging microplates in 45 μl McCoy's 5A medium with […]. After overnight incubation in 37° C., 5% CO2 incubator, cells were then treated with a 9-point dilution series of compounds and a blank control group with medium containing 0.1% DMSO.
Following a 24 hrs exposure to the compounds, the cells were fixed with 4% immunohistochemical fixative for 20 mins at room temperature, washed with DPBS with 2% fetal bovine serum, and permed with Perm Buffer III for 30 min on ice, washed with DPBS with 2% fetal bovine serum. Then the cells were blocked with Odyssey blocking buffer containing 0.1% Tween 20. 20 ul Anti-Histone H3 (acetyl K23) antibody (Abcam, ab177275) in odyssey blocking buffer containing 0.1% Tween20 was added and incubated overnight at 4° C. After incubation, the cells were washed for 3 times and a secondary antibody Anti-rabbit IgG (H+L), F(ab′)2 Fragment (Alexa Fluor® 647 Conjugate) (CST, 4414S) were added into cells for one hour. The cells were washed and 1 ug/ml DAPI (Thermo, 62248) were added for 10 min. Then cells were washed and read on the PerkinElmer Operetta CLS high content analysis system. The nuclei were identified by DAPI and H3K23ac level was calculated from the Alexa Fluor 647 intensity in the nuclei. Inhibition rate of H3K23ac was calculated as the mean intensity of cells per well relative to blank controls on the same plate.

The target in assay [2] is Recombinant human KAT6A protein (497-780) (Homo sapiens (Human), UniProt Q92794). Nature of the assay: KAT6A biochemical TR-FRET assay. The note with it: histone H4 peptide 2000 nM, AcCoA 300 nM, enzyme 5 nM. How it is done:
Enzymatic reactions of KAT6A and KAT6B were performed using Fluorescence Resonance Energy Transfer (TR-FRET) assay, which measures acetylation of a synthetic, biotinylated histone-H4 peptide by the KAT6A and KAT6B enzymes. Recombinant human KAT6A protein (497-780) were expressed in BL21 cell using an E. coli expression system. Recombinant human KAT6B protein (657-1069) was expressed in sf9 cell using a baculovirus expression system. […] Acetyl coenzyme A was purchased from Sigma-Aldrich (#A-2056).
Testing for the inhibition activities of various compounds disclosed herein was carried out at room temperature in assay buffer containing 100 mM Tris/HCl Ph7.8, 15 mM NaCl, 0.01% chicken egg white albumin, 1 mM DTT and 0.01% Tween-20. Compounds in DMSO were dispensed into wells of a black, 384-well plate (Corning 4514) using ECHO555 (Beckman). The final concentration ranges of the test compounds were 0.0625-1,000 nM, 0.625-10,000 nM, or 0.313-5,000 nM. Five μL of KAT6A or KAT6B enzyme solution were added to wells, and the plate was incubated for 1 hour at room temperature (rt). After incubation for 1 hour at rt, 5 μL H4 and AcCoA substrate solutions were added to the wells to initiate reaction, and the plate was incubated. After 2 hours reaction, 5 μL detection reagent were added to the wells, and the plate was incubated for 2 hours. After two hours incubation, detection reagent containing 5 nM Anti-histone H4 antibody (ABCAM #ab177790), 100 μM formic acid (sigma #06473-100ML), 0.1 test/μL streptavidin-XL665 (PerkinElmer #610SAXLG), 0.05 test/μL PAb anti-rabbit IgG-Eu (PerkinElmer μ61PARKLA) was added to the wells. TR-FRET was measured on a microplate reader (PHERAstar FSX, BMG labtech). […] In Table 6, I≤5 nM, 5 nM<II≤50 nM.
(In TR-FRET formats the signal depends on donor and acceptor labels being close together.)

The target of assay [3] is Recombinant human KAT6B protein (657-1069) (Homo sapiens (Human), UniProt Q8WYB5). In words: KAT6B biochemical TR-FRET assay. The note with it: histone H4 peptide 1000 nM, AcCoA 100 nM, enzyme 5 nM. How it is done: Enzymatic reactions of KAT6A and KAT6B were performed using Fluorescence Resonance Energy Transfer (TR-FRET) assay, which measures acetylation of a synthetic, biotinylated histone-H4 peptide by the KAT6A and KAT6B enzymes. Recombinant human KAT6A protein (497-780) were expressed in BL21 cell using an E. coli expression system. Recombinant human KAT6B protein (657-1069) was expressed in sf9 cell using a baculovirus expression system. Histone H4 peptide (SEQ ID NO: 1—[…]-GGK-Biotin), which was used as substrate, was synthesized by GL Biochem, Shanghai, China. Acetyl coenzyme A was purchased from Sigma-Aldrich (#A-2056).
Recombinant human KAT6B protein (657-1069), sequence (Q8WYB5 657-1069): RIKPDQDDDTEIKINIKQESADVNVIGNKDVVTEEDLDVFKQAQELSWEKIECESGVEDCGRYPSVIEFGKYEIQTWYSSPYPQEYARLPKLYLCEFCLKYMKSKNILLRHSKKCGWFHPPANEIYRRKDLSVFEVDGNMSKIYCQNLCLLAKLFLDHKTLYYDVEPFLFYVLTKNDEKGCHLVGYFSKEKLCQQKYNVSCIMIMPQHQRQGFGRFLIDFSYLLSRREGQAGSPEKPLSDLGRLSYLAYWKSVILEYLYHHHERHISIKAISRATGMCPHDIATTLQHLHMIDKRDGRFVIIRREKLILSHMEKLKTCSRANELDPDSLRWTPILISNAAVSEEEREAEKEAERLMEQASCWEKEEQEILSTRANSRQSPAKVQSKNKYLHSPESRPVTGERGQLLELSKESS
Testing for the inhibition activities of various compounds disclosed herein was carried out at room temperature in assay buffer containing 100 mM Tris/HCl Ph7.8, 15 mM NaCl, 0.01% chicken egg white albumin, 1 mM DTT and 0.01% Tween-20. Compounds in DMSO were dispensed into wells of a black, 384-well plate (Corning 4514) using ECHO555 (Beckman). The final concentration ranges of the test compounds were 0.0625-1,000 nM, 0.625-10,000 nM, or 0.313-5,000 nM. Five μL of KAT6A or KAT6B enzyme solution were added to wells, and the plate was incubated for 1 hour at room temperature (rt). After incubation for 1 hour at rt, 5 μL H4 and AcCoA substrate solutions were added to the wells to initiate reaction, and the plate was incubated. After 2 hours reaction, 5 μL detection reagent were added to the wells, and the plate was incubated for 2 hours. After two hours incubation, detection reagent containing 5 nM Anti-histone H4 antibody (ABCAM #ab177790), 100 μM formic acid (sigma #06473-100ML), 0.1 test/μL streptavidin-XL665 (PerkinElmer #610SAXLG), 0.05 test/μL PAb anti-rabbit IgG-Eu (PerkinElmer μ61PARKLA) was added to the wells. TR-FRET was measured on a microplate reader (PHERAstar FSX, BMG labtech). The IC50s were calculated based on inhibition of enzyme activity in the presence of increasing concentrations of test compounds, and the results are shown in Table 6. In Table 6, I≤5 nM, 5 nM<II≤50 nM.

Molecules are shown by their SMILES.

Recombinant human KAT6A protein (497-780), sequence (Q92794 497-780): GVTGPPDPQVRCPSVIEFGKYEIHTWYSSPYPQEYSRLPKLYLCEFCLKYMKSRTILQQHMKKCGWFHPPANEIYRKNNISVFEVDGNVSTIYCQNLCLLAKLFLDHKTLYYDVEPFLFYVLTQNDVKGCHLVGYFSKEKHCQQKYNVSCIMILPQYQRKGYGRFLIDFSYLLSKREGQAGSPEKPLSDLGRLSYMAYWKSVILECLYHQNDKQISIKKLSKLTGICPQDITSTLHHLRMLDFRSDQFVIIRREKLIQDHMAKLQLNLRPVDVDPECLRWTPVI

Take `C=Cc1cc(C(=O)NS(=O)(=O)c2c(OC)ccc3c2OC(C)(C)C3)ccc1Cn1cccn1` [Example C44, 4-((1H-pyrazol-1-yl)methyl)-N-((6-methoxy-2,2-dimethyl-2,3-dihydrobenzofuran-7-yl)sulfonyl)-3-vinylbenzamide]: the IC50 is at most 10 nM in assay [1], at most 5 nM in assay [2] and at most 5 nM in assay [3].

As for `COc1ccc(C(C)(C)C)nc1S(=O)(=O)NC(=O)c1ccc(Cn2cccn2)c(C2CCC2)c1` [Example C21, 4-((1H-pyrazol-1-yl)methyl)-N-((6-(tert-butyl)-3-methoxypyridin-2-yl)sulfonyl)-3-cyclobutyl-benzamide], the half-inhibitory concentration (IC50) in assay [1] is at most 10 nM; in assay [2], at most 5 nM; in assay [3], at most 5 nM.

For `COc1ccc(C(C)(C)C)nc1S(=O)(=O)NC(=O)c1ccc(Cn2cccn2)c(Br)c1` [Example C26, 4-((1H-pyrazol-1-yl)methyl)-3-bromo-N-((6-(tert-butyl)-3-methoxypyridin-2-yl)sulfonyl)benzamide], the IC50 in assay [1] was at most 10 nM; in assay [2], at most 5 nM; in assay [3], at most 5 nM.

As to `COc1ccc(C2COCCN2C)cc1S(=O)(=O)NC(=O)c1ccc(Cn2cccn2)c(OC)n1` (centres unmarked) [Example C73, 5-((1H-pyrazol-1-yl)methyl)-6-methoxy-N-((2-methoxy-5-(4-methylmorpholin-3-yl)phenyl)sulfonyl) picolinamide], the IC50 in assay [1] was at most 10 nM; in assay [2] it was at most 5 nM; in assay [3] it was at most 5 nM.

As to `COc1ccc(C(C)(C)C)nc1S(=O)(=O)NC(=O)c1ccc(Cn2cccn2)c(OC(F)F)c1` [Example C30, 4-((1H-pyrazol-1-yl)methyl)-N-((6-(tert-butyl)-3-methoxypyridin-2-yl)sulfonyl)-3-(difluoromethoxy)benzamide], the IC50 is at most 10 nM in assay [1], at most 5 nM in assay [2] and at most 5 nM in assay [3].

Turning to `COc1ccc(C2(C)CCOCC2)cc1S(=O)(=O)NC(=O)c1ccc(Cn2cccn2)c(OC)n1` [Example C70, 5-((1H-pyrazol-1-yl)methyl)-6-methoxy-N-((2-methoxy-5-(4-methyltetrahydro-2H-pyran-4-yl)phenyl)sulfonyl) picolinamide], the IC50 in assay [1] is at most 10 nM; in assay [2], at most 5 nM; in assay [3] it was at most 5 nM.

For `COc1ccc(C(C)(C)C)cc1S(=O)(=O)NC(=O)c1ccc(Cn2cccn2)c(I)c1` [Example C1, 4-((1H-pyrazol-1-yl)methyl)-N-((5-(tert-butyl)-2-methoxyphenyl)sulfonyl)-3-iodobenzamide], the IC50 in assay [1] was at most 10 nM; in assay [2], at most 5 nM; in assay [3], at most 5 nM.

Take `COc1ccc2c(c1S(=O)(=O)NC(=O)c1ccc(Cn3cccn3)c(OC)n1)OCC(C)(C)C2` [Example C55, 5-((1H-pyrazol-1-yl)methyl)-6-methoxy-N-((7-methoxy-3,3-dimethylchroman-8-yl)sulfonyl)picolinamide]: the half-inhibitory concentration (IC50) in assay [1] was at most 10 nM; in assay [2] it was at most 5 nM; in assay [3], at most 5 nM.

On to `COc1ccc(C2(OC)CC2)cc1S(=O)(=O)NC(=O)c1ccc(Cn2cccn2)c(OC)n1` [Example C56, 5-((1H-pyrazol-1-yl)methyl)-6-methoxy-N-((2-methoxy-5-(1-methoxycyclopropyl)phenyl)sulfonyl)picolinamide], for which the 50% inhibitory concentration (IC50) in assay [1] is at most 10 nM; in assay [2] it was at most 5 nM; in assay [3], at most 5 nM.

Regarding `CCc1cc(C(=O)NS(=O)(=O)c2c(OC)ccc3c2OC(C)(C)C3)ccc1Cn1cccn1` [Example C52, 4-((1H-pyrazol-1-yl)methyl)-3-ethyl-N-((6-methoxy-2,2-dimethyl-2,3-dihydrobenzofuran-7-yl)sulfonyl)benzamide], the IC50 in assay [1] is at most 10 nM; in assay [2] it was at most 5 nM; in assay [3], at most 5 nM.

`COc1cccc(OC)c1S(=O)(=O)NC(=O)c1ccc(Cn2cccn2)c(OC)n1` [Example C69, 5-((1H-pyrazol-1-yl)methyl)-N-((2,6-dimethoxyphenyl)sulfonyl)-6-methoxy-picolinamide]: the IC50 in assay [1] was at most 10 nM; in assay [3] it was at most 5 nM.

As usually defined, the IC50 is the concentration that gives 50% inhibition.
